Patent US20020133009A1, “Method for opening potassium channels” (priority 2001, published 2002)

Key:
maxi-K+ channels [1] = biological target: T1, maxi-K+ channels (Bos taurus, UniProt Q28204); assay: Patch clamp whole-cell current measurements in cultured bovine trabecular meshwork (TM) cells; assay type: cell-based
T1 construct: endogenous in cells; host or cells: cultured bovine trabecular meshwork (TM) cells
Protocol: (§1) Patch clamp experiments of cultured human and bovine trabecular meshwork (TM) cells are performed. Nystatin in a pipette is used to obtain perforated patches. Whole-cell current measurements in the cells are performed. Voltages from −80mV to +120mV with 200-msec duration each are applied through the patch pipette, starting from a holding potential of −40mV. After each step, the voltage is returned to a holding potential of […] for 200-msec. Currents are continuously sampled at 100 Hz throughout the duration of the protocol.

maxi-K+ channels [2] = biological target: T2, maxi-K+ channels (Homo sapiens, UniProt Q12791); assay: Patch clamp whole-cell current measurements in cultured human trabecular meshwork (TM) cells; assay type: cell-based
T2 construct: endogenous in cells; host or cells: cultured human trabecular meshwork (TM) cells
Protocol: as §1

T2 sequence (Q12791 whole entry): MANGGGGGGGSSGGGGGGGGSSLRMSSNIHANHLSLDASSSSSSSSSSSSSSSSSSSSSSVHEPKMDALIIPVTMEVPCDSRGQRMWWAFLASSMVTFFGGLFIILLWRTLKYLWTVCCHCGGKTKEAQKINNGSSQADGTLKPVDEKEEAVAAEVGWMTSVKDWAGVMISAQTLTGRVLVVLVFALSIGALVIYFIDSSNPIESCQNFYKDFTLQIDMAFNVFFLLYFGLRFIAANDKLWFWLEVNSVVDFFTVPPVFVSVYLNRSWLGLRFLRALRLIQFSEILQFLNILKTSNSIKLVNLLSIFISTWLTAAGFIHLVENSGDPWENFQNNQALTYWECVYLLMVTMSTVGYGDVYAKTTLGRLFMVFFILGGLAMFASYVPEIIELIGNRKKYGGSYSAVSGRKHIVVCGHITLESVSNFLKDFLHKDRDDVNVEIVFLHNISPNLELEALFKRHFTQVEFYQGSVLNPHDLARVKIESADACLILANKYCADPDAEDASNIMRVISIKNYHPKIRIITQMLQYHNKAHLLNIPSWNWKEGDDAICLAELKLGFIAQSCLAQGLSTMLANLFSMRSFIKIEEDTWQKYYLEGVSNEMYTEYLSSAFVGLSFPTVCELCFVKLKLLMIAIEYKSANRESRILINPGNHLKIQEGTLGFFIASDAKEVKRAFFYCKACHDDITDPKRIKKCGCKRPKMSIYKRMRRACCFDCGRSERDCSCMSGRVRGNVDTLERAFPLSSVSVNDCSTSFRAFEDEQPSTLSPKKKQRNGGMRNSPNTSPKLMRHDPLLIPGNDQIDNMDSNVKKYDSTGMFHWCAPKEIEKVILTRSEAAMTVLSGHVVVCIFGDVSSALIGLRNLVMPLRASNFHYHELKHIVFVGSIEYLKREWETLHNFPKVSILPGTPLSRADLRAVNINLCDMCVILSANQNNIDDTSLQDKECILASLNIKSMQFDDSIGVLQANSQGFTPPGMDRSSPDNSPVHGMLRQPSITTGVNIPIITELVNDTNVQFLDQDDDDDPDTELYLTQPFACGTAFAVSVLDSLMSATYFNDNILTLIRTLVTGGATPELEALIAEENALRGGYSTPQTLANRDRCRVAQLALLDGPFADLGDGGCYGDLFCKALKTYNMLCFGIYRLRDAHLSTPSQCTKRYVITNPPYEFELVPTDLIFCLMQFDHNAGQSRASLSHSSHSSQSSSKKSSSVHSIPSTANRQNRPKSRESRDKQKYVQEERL
T1 sequence (Q28204 whole entry): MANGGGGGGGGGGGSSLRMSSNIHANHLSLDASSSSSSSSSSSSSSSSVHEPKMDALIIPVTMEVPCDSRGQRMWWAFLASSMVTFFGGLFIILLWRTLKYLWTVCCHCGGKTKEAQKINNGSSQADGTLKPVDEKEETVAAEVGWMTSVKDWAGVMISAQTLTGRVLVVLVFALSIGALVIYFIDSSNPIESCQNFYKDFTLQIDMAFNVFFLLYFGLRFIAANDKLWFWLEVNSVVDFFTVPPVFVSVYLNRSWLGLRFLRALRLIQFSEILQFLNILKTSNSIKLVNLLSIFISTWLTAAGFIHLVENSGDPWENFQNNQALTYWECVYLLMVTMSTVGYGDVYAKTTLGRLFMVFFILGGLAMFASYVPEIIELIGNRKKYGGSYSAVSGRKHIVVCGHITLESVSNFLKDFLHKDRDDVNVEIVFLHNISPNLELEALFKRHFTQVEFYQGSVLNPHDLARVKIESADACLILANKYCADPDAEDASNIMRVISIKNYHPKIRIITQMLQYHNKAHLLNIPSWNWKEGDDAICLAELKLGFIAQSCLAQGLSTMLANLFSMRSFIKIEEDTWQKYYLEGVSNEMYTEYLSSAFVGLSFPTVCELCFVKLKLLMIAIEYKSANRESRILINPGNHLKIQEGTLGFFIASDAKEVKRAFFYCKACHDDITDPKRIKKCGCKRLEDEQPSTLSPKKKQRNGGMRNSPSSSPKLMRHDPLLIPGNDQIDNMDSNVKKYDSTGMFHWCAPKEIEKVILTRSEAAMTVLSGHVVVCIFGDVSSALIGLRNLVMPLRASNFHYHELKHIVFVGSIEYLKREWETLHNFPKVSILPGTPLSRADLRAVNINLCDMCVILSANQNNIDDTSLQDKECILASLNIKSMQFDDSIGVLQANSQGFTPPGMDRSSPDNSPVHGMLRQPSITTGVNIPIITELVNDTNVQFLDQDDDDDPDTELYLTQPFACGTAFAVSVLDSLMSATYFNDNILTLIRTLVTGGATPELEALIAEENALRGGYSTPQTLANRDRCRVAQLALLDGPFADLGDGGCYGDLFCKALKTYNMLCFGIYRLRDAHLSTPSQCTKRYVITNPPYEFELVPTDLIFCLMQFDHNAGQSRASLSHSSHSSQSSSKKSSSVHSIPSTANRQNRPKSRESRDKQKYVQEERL

Compound | overall current of the cells (maxi-K+ channels [1]; bovine TM cells incubated in either acetylcholine or endothelin) | total current, % of the control (maxi-K+ channels [1]; bovine trabecular meshwork cells incubated in acetylcholine, 10^-5 M unoprostone isopropyl, p<0.01) | maxi-K+ channel opening (maxi-K+ channels [1]; conclusion from iberiotoxin block, TM cells, species not given) | overall current of the cells (maxi-K+ channels [2]; human TM cells incubated in either acetylcholine or endothelin) | overall current (maxi-K+ channels [2]; human trabecular meshwork cells incubated in acetylcholine) | overall current (maxi-K+ channels [2]; human trabecular meshwork cells incubated in the presence of endothelin) | effect on unoprostone isopropyl-induced current (maxi-K+ channels [1]; TM cells, species not given) | total current inhibited by iberiotoxin, % of the control (maxi-K+ channels [1]; bovine trabecular meshwork cells incubated in acetylcholine, after unoprostone isopropyl stimulation)
CCCCCCCC(=O)CC[C@@H]1[C@@H](C/C=C\CCCC(=O)OC(C)C)[C@@H](O)C[C@H]1O [unoprostone isopropyl, [1R-[1α(Z),2β,3a,5a]]-7-[3,5-dihydroxy-2-(3-oxodecyl)cyclopentyl]-5-heptenoic acid isopropyl ester] | stimulated the overall current | approximately 180% | opens maxi-K+ channels | stimulated the overall current | stimulates the overall current | induces an increase in the overall current | – | –
iberiotoxin: highly specific inhibitor of maxi-K+ channels (QFTDVDCSVSKECWSVCKDLFGVDRGKCMGKKCRCYQ; UniProt P24663 1-37, looked up) [reference compound] | – | – | – | – | – | – | totally reduced | approximately 40%
